Experimental data published in PubChem BioAssay AID179 (DTP/NCI, 2004).
Where “and” joins values, the source holds several entries; their conditions need not be identical. Identical values can stand only once. Calls of active or inactive are those of the source.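 The calls were made as follows: active = compounds giving half or more protection of infected cells from virus-caused growth loss, again on retest; inactive = the rest.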

Test system: CEM cells HIV-1 protection, formazan growth assay
Assay: NCI AIDS Antiviral Assay
Conditions: for IC50: measured here: growth of uninfected CEM cells
Method in brief: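 Steps: treat uninfected and HIV-1-infected human CEM cells at five drug levels; quantify growth by soluble formazan; retest any compound reaching 50% protection; classify actives from the retest.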

| SMILES | EC50 | IC50 | outcome |
| --- | --- | --- | --- |
| Clc1cccc(-c2nnc(-c3nn(-c4ccccc4)c4nc5ccccc5nc34)o2)c1 | > 4.68 µM | > 4.68 µM |  |
| O=C(CN1CCOCC1)c1ccc2[nH]c(=O)oc2c1 | > 200 µM | 155 µM |  |
| CCN(CC)c1ccc2cc(-c3csc(-c4ccc(N(C)C)cc4)n3)c(=O)oc2c1 | > 100 µM | 10 µM |  |
| COC(=O)c1cc2ccc(O)c(O)c2cn1 | > 195 µM | 2.24 µM and 2.34 µM |  |
| C1CCOC2(CCC3(CC2)OCCCCO3)OC1 |  |  | inactive |
| CN(C)CC/[N+]([O-])=C(/c1ccccc1)C12CC3CC(CC(C3)C1)C2 |  |  | inactive |
| O=[N+]([O-])c1cccc2nsnc12 | > 145 µM | 23.4 µM |  |
| Clc1ccc(C=Nc2ccc(Oc3ccc(Cl)cc3)c(Cl)c2)cc1 | > 200 µM | 33.1 µM |  |
| CC(=O)OC1CC2C(C)(C)C(=O)C=C[C@]2(C)C2CCC3(C)C(c4ccoc4)C(=O)[C@H]4O[C@]43[C@]12C (stereo partly specified) | > 15.5 µM | 12 µM |  |
| Cc1cc2c(=O)cc(-c3ccc(C(=O)O)cc3)oc2c(C(N)=O)c1C |  |  | inactive |
| CC(=O)OCC12CCC(C)=CC1OC1C(O)C(OC(C)=O)C2(C)C12CO2 (stereo unspecified) | > 3.39 µM | 0.00331 µM |  |
| CC1(c2nc3cc(Cl)c(Cl)cc3[nH]2)CCC(C(=O)O)C(C)(C)O1 (stereo unspecified) | > 200 µM | > 200 µM |  |
| NC1=NN(c2ccccc2)C(=O)C1C(=O)C(=O)NC1C2CC3CC(C2)CC1C3 (stereo unspecified) | > 13.8 µM | > 13.8 µM |  |
| COc1cc(CNc2nc3ccccc3nc2-c2cccs2)cc(OC)c1OC | > 200 µM | 14.8 µM |  |
| CC1=COC(=O)c2ccccc2N1 | > 537 µM | 141 µM |  |
| Cc1cc2c(c(C#N)c1C)NC(=O)CN=C2c1ccccc1F | 70.8 µM | > 200 µM |  |
| O=S(=O)(O)c1ccc(N=Nc2cc(S(=O)(=O)O)c3ccccc3c2O)c2ccccc12 | > 100 µM | > 100 µM |  |
| Cc1cc(S(=O)(=O)Nc2nc(Nc3ccccc3)nn2C)c(S)cc1Cl | > 200 µM | 166 µM |  |
| C#CCNC(CS)C(=O)O (stereo unspecified) | > 200 µM | > 200 µM |  |
| O=C(c1nsc(Cl)c1Cl)N1CCCCC1 | > 200 µM | > 200 µM |  |

| SMILES | EC50 | IC50 | outcome |
| --- | --- | --- | --- |
| c1cc[c]([Sn]([O]c2cccc3cccnc23)([O]c2cccc3cccnc23)[c]2ccccc2)cc1 |  |  | inactive |
| COCN1COCN(C)C1=O | > 1550 µM | > 1550 µM |  |
| CCCCCCCCCCCCN(O)C(=O)c1ccccc1 | > 17 µM | > 17 µM |  |
| O=C(CC(=O)Nc1ccccc1)N/N=C/c1cc(N=Nc2ccc(Br)cc2)ccc1O | > 200 µM | 1.35 µM |  |
| COc1ccc(OC2(c3cc(OC)ccc3OC)OC(=O)c3ccccc32)cc1 (stereo unspecified) | > 13.2 µM | > 13.2 µM |  |
| Cc1cc(=O)c(C#N)c2c(C#N)c(N)[nH]n12 | > 200 µM | > 200 µM |  |
| Cn1c(=O)c2c(c3c(c(=O)n(C)c(=O)n3C)n2Cc2ccccc2)n(C)c1=O | > 93.3 µM | > 93.3 µM |  |
| COc1cc(NCC(C#N)C#N)ccc1N=Nc1ccc(Cl)cc1 | > 21.4 µM | > 21.4 µM |  |
| O=c1[nH]nc(Cc2ccccc2)n1O | > 200 µM | > 200 µM |  |
| O=C(/C=C/c1ccc(Cl)c(Cl)c1)c1cccc2ccccc12 | > 3.16 µM | > 3.16 µM |  |
| CCCCCCCCCCCC(=O)OCCOCCOCCOCCOCCOCc1ccccc1 |  |  | inactive |
| CN(C)[C@@H]1C(=O)C(C(=O)NCNc2nc3n[nH]nc3c(=O)[nH]2)=C(O)[C@@]2(O)C(=O)C3=C(O)c4c(O)cccc4[C@@](C)(O)[C@H]3C[C@@H]12 | > 0.891 µM | 0.562 µM |  |
| COC(=O)[C@@H]1[C@H](O)[C@H](C)[C@H](O)[C@@](C)(O)/C=C\C=C(C)C(=O)Nc2c(C)c(OC(C)=O)c3c(c2O)C(=O)C(C)=C2OCOC(=C23)C(C)=C[C@@](C)(O)[C@H](O)[C@@H](C)[C@H]1OC(C)=O | > 302 µM | 17 µM and > 43.7 µM |  |
| Cc1ccc(NC(=O)CC/C(CC(=O)C(C)(C)C)=N/Nc2nnc(C)n2N)cc1C | > 87.1 µM | > 87.1 µM |  |
| C#CC(C)(C)Oc1ccc2c(=O)c(-c3ccc(OC)cc3)coc2c1 | > 200 µM | 20 µM |  |
| CC1CC2(S(=O)(=O)c3ccccc3)ON1CC2S(=O)(=O)c1ccccc1 (stereo unspecified) |  |  | inactive |
| O=C(CCC(=O)Nc1ccc(Cl)c(Cl)c1)Cc1nc2ccccc2o1 | > 182 µM | > 182 µM |  |
| CC1CCC(=O)C(C(=O)CC2CC(=O)N(C)C(=O)C2)C1 (stereo unspecified) | > 126 µM | > 126 µM |  |
| [O-]c1c2cc(-[n+]3c(-c4ccccc4)cc(-c4ccccc4)cc3-c3ccccc3)cc1COCCOCCOCCOCCOC2 | > 200 µM | 36.3 µM |  |
| O=c1c2cc3c(=O)n(CCc4ccccc4CO)c(=O)c3cc2c(=O)n1CCc1ccccc1CO | > 10.7 µM | > 10.7 µM |  |

| SMILES | EC50 | IC50 | outcome |
| --- | --- | --- | --- |
| Cn1c(=O)cc(NNc2ccc(Cl)c(Cl)c2)[nH]c1=O | > 200 µM | 3.09 µM |  |
| COc1ccc(C(=O)C(C(=O)CCC(=O)Nc2ccc(Cl)c(Cl)c2)c2ccc(OC)cc2)cc1 (stereo unspecified) | > 72.4 µM | > 72.4 µM |  |
| C#CCn1c(I)cc2c(c1=O)COC(=O)[C@]2(O)CC | > 200 µM | > 200 µM |  |
| COc1ccc(-c2oc3cc(O)cc(O)c3c(=O)c2OC)cc1 |  |  | inactive |
| CNc1c2cccc(C)c2nc2c(C(=O)NCCN(C)C)cccc12 | > 0.2 µM | 0.0191 µM |  |
| CC(C)(C)OC(=O)NC(Cc1ccccc1)C(=O)N[C@H]1c2ccsc2/C(=N/O)[C@H]1O (stereo partly specified) | > 200 µM | 91.2 µM |  |
| COC(=O)[C@]1(C)C(OC)=CC(=O)C2C1[C@H]1CCC[C@@H]21 (stereo partly specified) |  |  | inactive |
| COC(=O)[C@@H]1[C@H]2CC[C@]3(C)[C@@H](OC(C)=O)CC[C@H]3[C@@H]2CC[C@H]1C1(C)SCCS1 | 10 µM | 24 µM |  |
| COc1ccc(-c2cc(-c3ccccc3)[nH]c(=O)c2N(C)C)cc1 | > 58.9 µM | > 58.9 µM |  |
| Clc1ccc(-c2nnc3c4nnc(-c5ccc(Cl)cc5Cl)n4c4ccccc4n23)c(Cl)c1 |  |  | inactive |
| COc1cc(/C=C2\SC(=S)N(/C=C(/C#N)C(=O)c3ccc4ccccc4c3)C2=O)cc(OC)c1OC | > 200 µM | 14.8 µM |  |
| CN1c2ccccc2S(=O)(=O)n2c(COc3ccc(Cl)cc3)nnc21 | > 200 µM | > 200 µM |  |
| CC1=NN(C(=O)CC(=O)N(C(=O)c2ccccc2Cl)c2ccc(C)cc2)C(=O)C1N=Nc1ccc([N+](=O)[O-])cc1 (stereo unspecified) | > 12.9 µM | > 12.9 µM |  |
| COc1cc(CC(C(=O)OC(C)(C)C)C(=O)OC(C)(C)C)c(NC(C)=O)c(OC)c1OC | > 200 µM | > 200 µM |  |
| COC(=O)C1CC(C(=O)OC)c2nc3cc([N+](=O)[O-])ccc3nc21 (stereo unspecified) | > 151 µM | 61.7 µM |  |
| COc1ccc(N2C(=O)/C(=C(\C)c3cc4ccccc4oc3=O)N=C2c2cc([N+](=O)[O-])ccc2Cl)cc1 | > 10 µM | > 10 µM |  |
| COC1=CCC=C(C[C@@H]2NCCc3cc(OC)c(OC)cc32)C1 | > 200 µM | > 200 µM |  |
| O=C(Nc1ccc(Cl)c(Cl)c1)Nc1ccc([N+](=O)[O-])cn1 | > 200 µM | > 200 µM |  |
| Cc1cc2occ(S(=O)(=O)NC(=O)Nc3ccc(Cl)cc3)c(=O)c2c(=O)o1 | > 200 µM | 151 µM |  |
| O=C(NCCO)c1c(CNC2CCCCC2)n([O-])c2ccccc2[n+]1=O | > 501 µM | > 501 µM |  |
